From ChEMBL document CHEMBL6074656, “Biological evaluation of signal transducer and activator of transcription 3 (STAT3) targeting by phaeosphaeride A and its analogs” (Bioorg Med Chem Lett, 2024)

What was measured:
MDA-MB-231 = assay: Inhibition of cell growth in human MDA-MB-231 cells by MTT assay; type: functional, cell-based
[1] = molecular target: Signal transducer and activator of transcription 3 (Homo sapiens, UniProt P40763); assay: Inhibition of IL-6-induced STAT3 phosphorylation at Tyr705 in human HeLa cells by Western blot analysis; type: cell-based
HeLa = assay: Inhibition of cell growth in human HeLa cells by MTT assay; type: functional, cell-based
U-266 = assay: Antiproliferative activity against human U-266 cells; type: functional, cell-based

Sequence of Signal transducer and activator of transcription 3 (P40763 whole entry): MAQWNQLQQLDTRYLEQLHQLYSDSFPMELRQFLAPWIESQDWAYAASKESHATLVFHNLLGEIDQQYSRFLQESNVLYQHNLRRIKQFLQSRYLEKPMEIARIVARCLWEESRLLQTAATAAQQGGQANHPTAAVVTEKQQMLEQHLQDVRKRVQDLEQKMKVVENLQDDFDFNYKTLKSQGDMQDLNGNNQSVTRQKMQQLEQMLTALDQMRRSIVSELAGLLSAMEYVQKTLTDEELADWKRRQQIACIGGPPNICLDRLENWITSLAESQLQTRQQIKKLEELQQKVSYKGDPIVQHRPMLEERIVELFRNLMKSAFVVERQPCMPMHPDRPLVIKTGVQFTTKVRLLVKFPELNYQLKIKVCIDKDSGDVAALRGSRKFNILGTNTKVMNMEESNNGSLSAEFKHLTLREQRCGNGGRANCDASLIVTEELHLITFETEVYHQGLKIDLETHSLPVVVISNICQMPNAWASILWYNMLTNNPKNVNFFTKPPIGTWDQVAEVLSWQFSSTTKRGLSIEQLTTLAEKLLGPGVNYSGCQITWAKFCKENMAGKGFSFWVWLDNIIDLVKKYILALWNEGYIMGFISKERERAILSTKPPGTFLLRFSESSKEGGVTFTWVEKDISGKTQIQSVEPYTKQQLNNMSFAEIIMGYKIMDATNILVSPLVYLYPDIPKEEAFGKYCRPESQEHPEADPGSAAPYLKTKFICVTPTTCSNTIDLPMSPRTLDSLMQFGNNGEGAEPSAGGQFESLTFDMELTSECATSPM

| IC50 (MDA-MB-231) [µM] | IC50 [1] [µM] | IC50 (HeLa) [µM] | inhibition ([1]; dose <= 100.0 µM) | SMILES | IC50 (U-266) [µM] |
| --- | --- | --- | --- | --- | --- |
| 19.8 | 7.3 | 6.1 | – | C=C1C2=C(C(=O)N1OC)[C@H](O)[C@@](C)(O)[C@@H](CCCCC)O2 | – |
| 24.2 | 20.2 | 8.4 | – | C=C1C2=C(C(=O)N1OC)[C@@H](O)[C@@](C)(O)[C@H](CCCCC)O2 | – |
| > 50 | > 100 | > 50 | – | CCCCC[C@@H]1OC2=C(C(=O)N(OC)C2=O)[C@H](O)[C@@]1(C)O | – |
| 29.7 | 13.5 | 8.8 | Dose-dependent-effect | C=C1C2=C(C(=O)N1OC)[C@H](O)[C@@](C)(O)[C@H](CCCCC)O2 | 6.7 |
| 3.4 | < 6.3 | 0.57 | – | O=[N+]([O-])c1ccc2c(c1)S(=O)(=O)C=C2 | – |
| 16.2 | 9.2 | 4.2 | – | C=C1C2=C(C(=O)N1OC)[C@@H](O)[C@@](C)(O)[C@@H](CCCCC)O2 | – |
| 8.9 | 6.6 | 4.2 | – | C=C1C2=C(C(=O)N1OC)[C@@H](O)[C@](C)(O)[C@@H](CCCCC)O2 | – |
